Measurements: US20240228446A1, “PREPARATION METHOD FOR BICYCLIC COMPOUND AND APPLICATION AS ANTIFUNGAL AGENT” (priority 2021, published 2024)
Converted amounts (≈) assume the structure as drawn. Like-named read-outs stand apart in the source and are kept apart here.

Tested on: Candida albicans ATCC MYA-2876
Test: Minimal inhibitory concentration (MIC) test on fungal growth (CLSI M27, yeasts)
Assay type: cell-based
Settings: for MIC: Candida albicans, read-out: MIC Candida albicans ATCC MYA-2876
Method: • RPMI1640 medium: Brand: Gibco, article number: 31800-014 • Sabouraud dextrose agar (SDA): Brand: Hope Bio, article number: HB0253-81 • Voriconazole: Brand: Adamas, article number: 22105A • Amphotericin B: Brand: AbCam, article number: ab141199
MIC test was conducted in accordance with the guidelines and requirements of CLSI M27 (for yeasts) and M38 (for Aspergillus).
Strain preparation: The strains were inoculated 1 day in advance by streaking on SDA plates with glycerol strains stored at −80° C. The strains were cultured at 35° C. and 40 to 60% humidity for 18 to 24 hours. Streak inoculation of Aspergillus fumigatus and Cryptococcus neoformans was required to be done 3 days and 2 days in advance, respectively.
Preparation of culture medium and compounds: The liquid culture medium RPMI was prepared with pure water, and 0.165 mol/L MOPS was added to adjust the pH to 7.0. The mixture was filtered with a 0.22 μm-membrane filter, sterilized, and stored at 4° C. (no more than 3 months). 0.85% physiological saline was sterilized at 121° C. for 30 min and then stored at room temperature (no more than 1 week). The compounds were dissolved in DMSO to 12.8 mg/mL and stored at −20° C.
For yeast, 3 to 5 colonies were selected from the SDA plate on the day of testing and fully suspended in 5 mL of sterilized 0.85% physiological saline. The turbidity of the bacterial suspension was measured with a turbidimeter, and the turbidity was adjusted to approximately 0.2. The bacterial suspension was 50-fold and 20-fold (1000-fold in total) diluted in RPMI1640 medium, respectively, to serve as the inoculum. The final inoculum concentration was 500 to 2500 CFU/mL.
The compound was diluted to the highest 800 μg/mL (or 400 μg/mL) with DMSO, and a 10-step 2-fold gradient dilution was performed, resulting in 11 concentrations. 2 μL of the gradient-diluted compound was transferred to the corresponding wells of a 96-well plate, and then 198 μL of the inoculum was transferred to the test plate. The plate was incubated at 35° C. for 24 hours (Aspergillus fumigatus and Cryptococcus neoformans were incubated for 48 and 72 hours, respectively).
After the incubation, the growth of the fungi was visually observed. The lowest concentration of the compound that inhibited the growth of yeast by 50% (inhibited Aspergillus by 100%) was defined as the minimum inhibitory concentration (MIC, μg/mL). A magnifying glass or reading at OD530 nm could be used to assist in determining the MIC. Photos were taken of the test plates for record keeping.

[1] = lowest concentration inhibiting growth of yeast by 50%, 35° C., 24 hours, RPMI1640

MIC [1] [µg/mL]	SMILES	also measured
0.06 (≈ 0.123 µM)	OC(Cn1cnnn1)(c1ccc(F)cc1F)C(F)(F)C12CC(c3ccc(OC4CNC4)cc3)(C1)C2 (stereo not drawn) [Compound 44]	–
0.03 (≈ 0.0596 µM)	CN1CC(Oc2ccc(C34CC(C(F)(F)C(O)(Cn5cnnn5)c5ccc(F)cc5F)(C3)C4)cc2)C1 (stereo not drawn) [Compound 45]	–
0.03 (≈ 0.058 µM)	OC(Cn1cnnn1)(c1ccc(F)cc1F)C(F)(F)C12CC(c3ccc(OCC(F)(F)F)nc3)(C1)C2 (stereo not drawn) [Compound 46]	–
0.0078 (≈ 0.0151 µM)	OC(Cn1cncn1)(c1ccc(F)cc1F)C(F)(F)C12CC(c3ccc(OCC(F)(F)F)nc3)(C1)C2 (stereo not drawn) [Compound 47]	–
0.13 (≈ 0.244 µM)	O=C1NC[C@H](COc2ccc(C34CC(C(F)(F)C(O)(Cn5cnnn5)c5ccc(F)cc5F)(C3)C4)cc2)O1 (stereo partly drawn) [Compound 59]	–
0.06 (≈ 0.112 µM)	O=C1NC[C@@H](COc2ccc(C34CC(C(F)(F)C(O)(Cn5cnnn5)c5ccc(F)cc5F)(C3)C4)cc2)O1 (stereo partly drawn) [Compound 60]	–
0.016 (≈ 0.0325 µM)	COCCOc1ccc(C23CC(C(F)(F)C(O)(Cn4cnnn4)c4ccc(F)cc4F)(C2)C3)cc1 (stereo not drawn) [Compound 62]	–
0.13 (≈ 0.253 µM)	NS(=O)(=O)Oc1ccc(C23CC(C(F)(F)C(O)(Cn4cnnn4)c4ccc(F)cc4F)(C2)C3)cc1 (stereo not drawn) [Compound 68]	–
0.13 (≈ 0.232 µM)	O=C(COc1ccc(C23CC(C(F)(F)C(O)(Cn4cnnn4)c4ccc(F)cc4F)(C2)C3)cc1)N1CCOCC1 (stereo not drawn) [Compound 70]	–
0.016 (≈ 0.0301 µM)	OC(Cn1cnnn1)(c1ccc(F)cc1F)C(F)(F)C12CC(c3ccc(OCc4nccs4)cc3)(C1)C2 (stereo not drawn) [Compound 73]	–
0.13 (≈ 0.251 µM)	CN1CC(COc2ccc(C34CC(C(F)(F)C(O)(Cn5cnnn5)c5ccc(F)cc5F)(C3)C4)cc2)C1 (stereo not drawn) [Compound 75]	–
0.016 (≈ 0.0336 µM)	COC(=O)c1ccc(C23CC(C(F)(F)C(O)(Cn4cnnn4)c4ccc(F)cc4F)(C2)C3)cc1 (stereo not drawn) [Compound 77]	–
0.25 (≈ 0.526 µM)	CNC(=O)c1ccc(C23CC(C(F)(F)C(O)(Cn4cnnn4)c4ccc(F)cc4F)(C2)C3)cc1 (stereo not drawn) [Compound 79]	–
0.03 (≈ 0.0548 µM)	CN1CCOC(COc2ccc(C34CC(C(F)(F)C(O)(Cn5cnnn5)c5ccc(F)cc5F)(C3)C4)cc2)C1 (stereo not drawn) [Compound 85]	–
0.06 (≈ 0.107 µM)	OC(COCc1ccc(C23CC(C(F)(F)C(O)(Cn4cnnn4)c4ccc(F)cc4F)(C2)C3)cn1)C(F)(F)F (stereo not drawn) [Compound 86]	–
0.016 (≈ 0.0346 µM)	CCOc1ccc(C23CC(C(F)(F)C(O)(Cn4cnnn4)c4ccc(F)cc4F)(C2)C3)cc1 (stereo not drawn) [Compound 87]	–
0.25 (≈ 0.504 µM)	CS(=O)(=O)c1ccc(C23CC(C(F)(F)C(O)(Cn4cnnn4)c4ccc(F)cc4F)(C2)C3)cc1 (stereo not drawn) [Compound 88]	–
0.0078 (≈ 0.0142 µM)	OC(COc1ccc(C23CC(C(F)(F)C(O)(Cn4cnnn4)c4ccc(F)cc4F)(C2)C3)cn1)C(F)(F)F (stereo not drawn) [Compound 97]	–
0.016 (≈ 0.0293 µM)	OC(CNc1ccc(C23CC(C(F)(F)C(O)(Cn4cnnn4)c4ccc(F)cc4F)(C2)C3)cn1)C(F)(F)F (stereo not drawn) [Compound 99]	–
0.06 (≈ 0.116 µM)	OC(Cn1cnnn1)(c1ccc(F)cc1F)C(F)(F)C12CC(c3cnc(OCC(F)(F)F)cn3)(C1)C2 (stereo not drawn) [Compound 107]	–
0.06 (≈ 0.116 µM)	OC(Cn1cnnn1)(c1ccc(F)cc1F)C(F)(F)C12CC(c3cnc(OCC(F)(F)F)nc3)(C1)C2 (stereo not drawn) [Compound 110]	–
0.125 (≈ 0.256 µM)	OC(Cn1cnnn1)(c1ccc(F)cc1F)C(F)(F)C12CC(c3ccc(C(F)(F)F)nc3)(C1)C2 (stereo not drawn) [Compound 115]	–
0.06 (≈ 0.116 µM)	CN1CCN(c2ccc(C34CC(C(F)(F)C(O)(Cn5cnnn5)c5ccc(F)cc5F)(C3)C4)cn2)CC1 (stereo not drawn) [Compound 117]	–
0.016 (≈ 0.0306 µM)	OC(Cn1cnnn1)(c1ccc(F)cc1F)C(F)(F)C12CC(c3ccc(OCC4(F)COC4)nc3)(C1)C2 (stereo not drawn) [Compound 122]	–

Continued, compound first:

SMILES	MIC [1] [µg/mL]	also measured
O[C@](Cn1cnnn1)(CC12CC(c3ccc(OCC(F)(F)F)cc3)(C1)C2)c1ccc(F)cc1F [Compound 48A]	–	MIC Candida albicans ATCC MYA-2876 [1]: 0.016 µg/mL (≈ 0.0333 µM)
OC(Cn1cnnn1)(CC12CC(c3ccc(OCC(F)(F)F)cc3)(C1)C2)c1ccc(F)cc1F (stereo not drawn) [Compound 48]	0.06 (≈ 0.125 µM)	–
NC[C@H](O)COc1ccc(C23CC(C(F)(F)C(O)(Cn4cnnn4)c4ccc(F)cc4F)(C2)C3)cc1 (stereo partly drawn) [Compound 52]	–	MIC (24 h): 1 µg/mL (≈ 1.97 µM)
CC(C)NC[C@H](O)COc1ccc(C23CC(C(F)(F)C(O)(Cn4cnnn4)c4ccc(F)cc4F)(C2)C3)cc1 (stereo partly drawn) [Compound 53]	0.5 (≈ 0.91 µM)	–
CC(C)NC[C@@H](O)COc1ccc(C23CC(C(F)(F)C(O)(Cn4cnnn4)c4ccc(F)cc4F)(C2)C3)cc1 (stereo partly drawn) [Compound 54]	–	MIC (24 h): 0.5 µg/mL (≈ 0.91 µM)
CN(C)C[C@@H](O)COc1ccc(C23CC(C(F)(F)C(O)(Cn4cnnn4)c4ccc(F)cc4F)(C2)C3)cc1 (stereo partly drawn) [Compound 55]	0.25 (≈ 0.467 µM)	–
CN(C)C[C@H](O)COc1ccc(C23CC(C(F)(F)C(O)(Cn4cnnn4)c4ccc(F)cc4F)(C2)C3)cc1 (stereo partly drawn) [Compound 56]	0.5 (≈ 0.934 µM)	–
OC(COc1ccc(C23CC(C(F)(F)C(O)(Cn4cnnn4)c4ccc(F)cc4F)(C2)C3)cc1)CN1CCOCC1 (stereo not drawn) [Compound 57]	–	MIC (24 h): 0.06 µg/mL (≈ 0.104 µM)
O[C@H](COc1ccc(C23CC(C(F)(F)C(O)(Cn4cnnn4)c4ccc(F)cc4F)(C2)C3)cc1)CN1CCOCC1 (stereo partly drawn) [Compound 58]	0.06 (≈ 0.104 µM)	–
CN(C)CCOc1ccc(C23CC(C(F)(F)C(O)(Cn4cnnn4)c4ccc(F)cc4F)(C2)C3)cc1 (stereo not drawn) [Compound 64]	–	MIC (24 h): 0.06 µg/mL (≈ 0.119 µM)
OC(Cn1cnnn1)(c1ccc(F)cc1F)C(F)(F)C12CC(c3ccc(Oc4ccccn4)cc3)(C1)C2 (stereo not drawn) [Compound 71]	–	MIC (24 h): 0.03 µg/mL (≈ 0.0587 µM)
OC(Cn1cnnn1)(c1ccc(F)cc1F)C(F)(F)C12CC(c3ccc(OCc4ccccn4)cc3)(C1)C2 (stereo not drawn) [Compound 72]	0.03 (≈ 0.0571 µM)	–
CN1CCC(COc2ccc(C34CC(C(F)(F)C(O)(Cn5cnnn5)c5ccc(F)cc5F)(C3)C4)cc2)CC1 (stereo not drawn) [Compound 74]	0.13 (≈ 0.238 µM)	–
OC(Cn1cnnn1)(c1ccc(F)cc1F)C(F)(F)C12CC(CN3CCC(Oc4ccccc4)CC3)(C1)C2 (stereo not drawn) [Compound 80]	0.06 (≈ 0.113 µM)	–
N#Cc1ccc(C23CC(C(F)(F)C(F)(Cn4cncn4)c4ccc(F)cc4F)(C2)C3)cc1 (stereo not drawn) [Compound 83]	0.06 (≈ 0.135 µM)	–
OC(Cn1cnnn1)(c1ccc(F)cc1F)C(F)(F)C12CC(c3ccc(O[C@@H]4CCNC4)cc3)(C1)C2 (stereo partly drawn) [Compound 84]	0.25 (≈ 0.497 µM)	–
O[C@H](COc1ccc(C23CC(CC(O)(Cn4cnnn4)c4ccc(F)cc4F)(C2)C3)cc1)C(F)(F)F (stereo partly drawn) [Compound 89]	0.016 (≈ 0.0313 µM)	–

SMILES	MIC [1] [µg/mL]	also measured
N#Cc1ccc(C23CC(CC(O)(Cn4cncn4)c4ccc(F)cc4F)(C2)C3)cc1 (stereo not drawn) [Compound 91]	≤ 0.0039	–
COc1ccc(C23CC(C(F)(F)C(O)(Cn4cnnn4)c4ccc(F)cc4F)(C2)C3)cn1 (stereo not drawn) [Compound 92]	–	MIC (24 h): 0.03 µg/mL (≈ 0.0668 µM)
OC(Cn1cncn1)(c1ccc(F)cc1F)C(F)(F)C12CC(c3ccc(-n4cncn4)nc3)(C1)C2 (stereo not drawn) [Compound 95]	≤ 0.0039	–
OC(CNc1ccc(C23CC(C(F)(F)C(O)(Cn4cncn4)c4ccc(F)cc4F)(C2)C3)cn1)C(F)(F)F (stereo not drawn) [Compound 100]	0.0078 (≈ 0.0143 µM)	–
OCC(F)(F)CNc1ccc(C23CC(C(F)(F)C(O)(Cn4cnnn4)c4ccc(F)cc4F)(C2)C3)cn1 (stereo not drawn) [Compound 104]	–	MIC (24 h): 0.03 µg/mL (≈ 0.0568 µM)
OC(Cn1cnnn1)(c1ccc(F)cc1F)C(F)(F)C12CC(c3ccc(OCC(F)(F)F)cn3)(C1)C2 (stereo not drawn) [Compound 105]	–	MIC (24 h): 0.016 µg/mL (≈ 0.0309 µM)
OC(COc1cnc(C23CC(C(F)(F)C(O)(Cn4cnnn4)c4ccc(F)cc4F)(C2)C3)cn1)C(F)(F)F (stereo not drawn) [Compound 108]	0.06 (≈ 0.109 µM)	–
OC(Cn1cnnn1)(c1ccc(F)cc1F)C(F)(F)C12CC(c3cnc(NCC(F)(F)F)nc3)(C1)C2 (stereo not drawn) [Compound 111]	–	MIC (24 h): 0.016 µg/mL (≈ 0.0309 µM)
OC(Cn1cnnn1)(c1ccc(F)cc1F)C(F)(F)C12CC(c3ccc(OCC(F)(F)F)nn3)(C1)C2 (stereo not drawn) [Compound 114]	–	MIC (24 h): 0.06 µg/mL (≈ 0.116 µM)
OC(Cn1cnnn1)(c1ccc(F)cc1F)C(F)(F)C12CC(C3=CCN(CC(F)(F)F)CC3)(C1)C2 (stereo not drawn) [Compound 118]	–	MIC Candida albicans ATCC MYA-2876 [1]: 0.0078 µg/mL (≈ 0.0154 µM)
COc1nc(C23CC(C(F)(F)C(O)(Cn4cnnn4)c4ccc(F)cc4F)(C2)C3)cs1 (stereo not drawn) [Compound 119]	0.06 (≈ 0.132 µM)	–
OC(Cn1cnnn1)(c1ccc(F)cc1F)C(F)(F)C12CC(c3cnn(CC(F)(F)F)c3)(C1)C2 (stereo not drawn) [Compound 120]	–	MIC Candida albicans ATCC MYA-2876 [1]: 0.125 µg/mL (≈ 0.255 µM)
OC(Cn1ccnc1)(c1ccc(F)cc1F)C(F)(F)C12CC(c3ccc(OCC(F)(F)F)cc3)(C1)C2 (stereo not drawn) [Compound 124]	0.0078 (≈ 0.0152 µM)	–
CC(C12CC(c3ccc(C#N)cc3)(C1)C2)C(O)(Cn1cncn1)c1ccc(F)cc1F (stereo not drawn) [Compound 126]	0.016 (≈ 0.0381 µM)	–
OC12CC(C(F)(F)C(O)(Cn3cncn3)c3ccc(F)cc3F)(C1)C2 (stereo not drawn) [Compound 133]	3 (≈ 8.4 µM)	–
CCS(=O)(=O)C[C@@H](O)COc1ccc(C23CC(C(F)(F)C(O)(Cn4cnnn4)c4ccc(F)cc4F)(C2)C3)cc1 (stereo partly drawn) [Compound 139]	0.06 (≈ 0.103 µM)	–
